Earlier results in patent US12161733B2, “Chemical conjugates of Evans Blue derivatives and their use as radiotherapy and imaging agents for targeting prostate cancer” (THE UNITED STATES OF AMERICA, AS REPRESENTED BY THE …, priority 2018, dated 2024).

Test system: prostate cancer patients

## O=C([O-])CN1CCN(CC(=O)[O-])CCN(CC(=O)NCC2CCC(C(=O)N[C@@H](Cc3ccc4ccccc4c3)C(=O)NCCCC[C@H](NC(=O)N[C@@H](CCC(=O)O)C(=O)O)C(=O)O)CC2)CCN(CC(=O)[O-])CC1.[177Lu+3] (some centres unmarked) [^177Lu-PSMA-617]
long-term toxicity unknown
  side effects: only stage 1-2 hematologic toxicities and sporadically mild xerostomia and fatigue
Up to 3 cycles, response limited to as few as several weeks in some patients
  partial response rates: 70%-80%
